# According to US11453660B2, “Androgen receptor and glucocorticoid receptor modulators” (ONCOSTELLAE, S.L., priority 2017, dated 2022):
# Molecular target: T1, Human Glucocorticoid Receptor (Homo sapiens, UniProt P04150)
# T1 construct: endogenous in cells; host or cells: cytosol from IM-9 cell line
# T1 sequence (P04150 1-777): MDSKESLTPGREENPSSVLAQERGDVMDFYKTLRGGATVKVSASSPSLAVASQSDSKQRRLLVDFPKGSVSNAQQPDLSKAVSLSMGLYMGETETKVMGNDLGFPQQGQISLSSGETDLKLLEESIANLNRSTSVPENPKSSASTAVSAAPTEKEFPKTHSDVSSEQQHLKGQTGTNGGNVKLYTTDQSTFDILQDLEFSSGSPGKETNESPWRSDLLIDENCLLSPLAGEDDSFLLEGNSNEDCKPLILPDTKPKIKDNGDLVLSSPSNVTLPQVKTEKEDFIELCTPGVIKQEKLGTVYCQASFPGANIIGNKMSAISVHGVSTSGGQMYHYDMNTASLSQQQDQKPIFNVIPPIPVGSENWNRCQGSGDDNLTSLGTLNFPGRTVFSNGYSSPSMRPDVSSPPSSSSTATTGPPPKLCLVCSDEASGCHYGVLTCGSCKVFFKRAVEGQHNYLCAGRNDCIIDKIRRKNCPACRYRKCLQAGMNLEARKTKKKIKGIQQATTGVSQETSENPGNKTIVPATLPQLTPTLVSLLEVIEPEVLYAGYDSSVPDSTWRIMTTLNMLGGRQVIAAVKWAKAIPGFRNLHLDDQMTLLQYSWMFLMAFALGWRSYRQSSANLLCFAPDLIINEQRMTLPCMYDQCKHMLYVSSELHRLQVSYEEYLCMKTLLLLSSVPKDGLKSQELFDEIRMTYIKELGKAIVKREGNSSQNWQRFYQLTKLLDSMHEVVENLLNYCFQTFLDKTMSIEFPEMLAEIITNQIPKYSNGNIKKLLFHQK
# Assay: Competition Binding in IM-9 Human Glucocorticoid Receptor (GR IM-9)
# Details: cytosol from IM-9 cell line, 1.5 nM [3H]-Dexamethasone, 4° C. for 6 hours
# Method: Competition Binding in IM-9 Human Glucocorticoid Receptor (GR IM-9)
# Glucocorticoid receptor competition binding assays were carried out in a polypropilene 96-well plate. In each well was incubated 100 μg of cytosol from IM-9 cell line, 1.5 nM [3H]-Dexamethasone (71 Ci/mmol, 1 mCi/ml, Perkin Elmer NET1192001MC) and compounds studied and standard. Non-specific binding was determined in the presence of Triamcinolone 10 μM (Sigma Aldrich T6376).
# The reaction mixture (Vt: 200 μl/well) was incubated at 4° C. for 6 hours, 180 μL was transferred to GF/B 96-well plate (Millipore, Madrid, Spain) pretreated with 0.5% of PEI and treated with binding buffer (TES 10 mM, sodium molybdate 10 mM, EDTA 1 mM, pH 7.4, 2-mercaptoethanol 20 mM, Glycerol 10%) after was filtered and washed six times with 250 μl wash buffer (TES 10 mM, sodium molybdate 10 mM, EDTA 1 mM, pH 7.4, 2-mercaptoethanol 20 mM Glycerol 10%), before measuring in a microplate beta scintillation counter (Microbeta Trilux, PerkinElmer, Madrid, Spain).
row,Structure (SMILES),IC50 [nM]
1,"COC(=O)C1=C(N)NC(C)=C(C(C)=O)C1c1csc2c(C#N)cccc12 (stereo not drawn) [Example D5, Methyl 5-acetyl-2-amino-4-(7-cyanobenzo[b]thiophen-3-yl)-6-methyl-1,4-dihydropyridine-3-carboxylate]",< 100
2,"CC(=O)C1=C(C)NC(N)=C(C(=O)OCC2CC2)C1c1csc2c(C#N)cccc12 (stereo not drawn) [Example D10, Cyclopropylmethyl 5-acetyl-2-amino-4-(7-cyanobenzo[b]thiophen-3-yl)-6-methyl-1,4-dihydropyridine-3-carboxylate]",< 100
3,"COC(=O)C1=C(COCCN)NC(C)=C(C(C)=O)C1c1csc2c(Br)cccc12 (stereo not drawn) [Example C115, Methyl 5-acetyl-2-((2-aminoethoxy)methyl)-4-(7-bromobenzo[b]thiophen-3-yl)-6-methyl-1,4-dihydropyridine-3-carboxylate]",≥ 1000
4,"COC(=O)C1=C(C)NC(N)=C(C(=O)OCC2CC2)C1c1csc2c(C#N)cccc12 (stereo not drawn) [Example D17, 3-(cyclopropylmethyl) 5-methyl 2-amino-4-(7-cyanobenzo[b]thiophen-3-yl)-6-methyl-1,4-dihydropyridine-3,5-dicarboxylate]",< 100
5,"CC(=O)C1=C(C)NC(C2CC2)=C(C(=O)OCC2CC2)C1c1csc2c(C#N)cccc12 (stereo not drawn) [Example C101, Cyclopropylmethyl 5-acetyl-4-(7-cyanobenzo[b]thiophen-3-yl)-2-cyclopropyl-6-methyl-1,4-dihydropyridine-3-carboxylate]",< 100
6,"COC(=O)C1=C(C2CC2)NC(C)=C(C(C)=O)C1c1csc2c(C(=O)C(F)(F)F)cccc12 (stereo not drawn) [Example C85, Methyl 5-acetyl-2-cyclopropyl-6-methyl-4-(7-(2,2,2-trifluoroacetyl)benzo[b]thiophen-3-yl)-1,4-dihydropyridine-3-carboxylate]",≥ 1000
7,"COC(=O)C1=C(C2CC2)NC(C)=C(C(C)=O)C1c1csc2c(F)cccc12 (stereo not drawn) [Example C98, Methyl 5-acetyl-2-cyclopropyl-4-(7-fluorobenzo[b]thiophen-3-yl)-6-methyl-1,4-dihydropyridine-3-carboxylate]",100 to 1000
8,"CC(=O)C1=C(C)NC(C)=C(C(=O)OCc2ccncc2F)C1c1csc2ncccc12 (stereo not drawn) [Example C68, (3-fluoropyridin-4-yl)methyl 5-acetyl-2,6-dimethyl-4-(thieno[2,3-b]pyridin-3-yl)-1,4-dihydropyridine-3-carboxylate]",≥ 1000
9,"CC(=O)C1=C(C)NC(C)=C(C(=O)OC(C)(C)c2ccccc2)C1c1csc2c(Br)cccc12 (stereo not drawn) [Example C86, 2-phenylpropan-2-yl 5-acetyl-4-(7-bromobenzo[b]thiophen-3-yl)-2,6-dimethyl-1,4-dihydropyridine-3-carboxylate]",100 to 1000
10,"CC(=O)C1=C(C)NC(C)=C(C(=O)OCc2ccnc(Cl)c2)C1c1csc2ncccc12 (stereo not drawn) [Example C77, (2-chloropyridin-4-yl)methyl 5-acetyl-2,6-dimethyl-4-(thieno[2,3-b]pyridin-3-yl)-1,4-dihydropyridine-3-carboxylate]",100 to 1000
11,"CC(=O)C1=C(C)NC(C)=C(C(=O)OCc2ccnc(-c3ccncc3)c2)C1c1csc2ncccc12 (stereo not drawn) [Example L12, [2,4′-bipyridin]-4-ylmethyl 5-acetyl-2,6-dimethyl-4-(thieno[2,3-b]pyridin-3-yl)-1,4-dihydropyridine-3-carboxylate]",100 to 1000
12,"COC(=O)C1=C(C)NC(C2CC2)=C(C(=O)OCC2CC2)C1c1csc2c(C#N)cccc12 (stereo not drawn) [Example C109, 3-(cyclopropylmethyl) 5-methyl 4-(7-cyanobenzo[b]thiophen-3-yl)-2-cyclopropyl-6-methyl-1,4-dihydropyridine-3,5-dicarboxylate]",< 100
13,"CC(=O)C1=C(C)NC(N)=C(C(=O)OCC2CCCC2)C1c1csc2c(C#N)cccc12 (stereo not drawn) [Example D16, Cyclopentylmethyl 5-acetyl-2-amino-4-(7-cyanobenzo[b]thiophen-3-yl)-6-methyl-1,4-dihydropyridine-3-carboxylate]",< 100
14,"CC(=O)C1=C(C)NC(C2CC2)=C(C(=O)C2CC2)C1c1csc2c(Br)cccc12 (stereo not drawn) [Example C93, 1-(4-(7-Bromobenzo[b]thiophen-3-yl)-5-(cyclopropanecarbonyl)-6-cyclopropyl-2-methyl-1,4-dihydropyridin-3-yl)ethan-1-one]",100 to 1000
15,"CC(=O)C1=C(C)NC(C2CC2)=C(C(=O)OC2COC2)C1c1csc2c(Br)cccc12 (stereo not drawn) [Example C81, Oxetan-3-yl 5-acetyl-4-(7-bromobenzo[b]thiophen-3-yl)-2-cyclopropyl-6-methyl-1,4-dihydropyridine-3-carboxylate]",< 100
16,"COC(=O)C1=C(N)NC(C2CC2)=C(C(=O)OCC2CC2)C1c1csc2c(C#N)cccc12 (stereo not drawn) [Example D21, 5-(cyclopropylmethyl) 3-methyl 2-amino-4-(7-cyanobenzo[b]thiophen-3-yl)-6-cyclopropyl-1,4-dihydropyridine-3,5-dicarboxylate]",< 100
17,"CC(=O)C1=C(C)NC(C2CC2)=C(C(=O)OCC2CC2)C1c1csc2c(Br)cccc12 (stereo not drawn) [Example C84, Cyclopropylmethyl 5-acetyl-4-(7-bromobenzo[b]thiophen-3-yl)-2-cyclopropyl-6-methyl-1,4-dihydropyridine-3-carboxylate]",< 100
18,"CC(=O)C1=C(C)NC(C2CC2)=C(C(=O)OC2CCCC2)C1c1csc2ncccc12 (stereo not drawn) [Example C100, Cyclopentyl 5-acetyl-2-cyclopropyl-6-methyl-4-(thieno[2,3-b]pyridin-3-yl)-1,4-dihydropyridine-3-carboxylate]",< 100
19,"COC(=O)C1=C(C)NC(N)=C(C(=O)OCC2CC2)C1c1csc2c(C#N)c(C(F)(F)F)ccc12 (stereo not drawn) [Example D54, 3-(Cyclopropylmethyl) 5-methyl 2-amino-4-(7-cyano-6-(trifluoromethyl)benzo[b]thiophen-3-yl)-6-methyl-1,4-dihydropyridine-3,5-dicarboxylate]",< 100
20,"COC(=O)C1=C(N)NC(C)=C(C#N)C1c1csc2c(C#N)cccc12 (stereo not drawn) [Example D12, Methyl 2-amino-5-cyano-4-(7-cyanobenzo[b]thiophen-3-yl)-6-methyl-1,4-dihydropyridine-3-carboxylate]",< 100
21,"CC(=O)C1=C(C)NC(C2CC2)=C(C(=O)OC(C)C)C1c1csc2c(Br)cccc12 (stereo not drawn) [Example C82, Isopropyl 5-acetyl-4-(7-bromobenzo[b]thiophen-3-yl)-2-cyclopropyl-6-methyl-1,4-dihydropyridine-3-carboxylate]",< 100
22,"COC(=O)C1=C(C2CC2)NC(C)=C(C(C)=O)C1c1csc2c(C3CC3)cccc12 (stereo not drawn) [Example L14, Methyl 5-acetyl-2-cyclopropyl-4-(7-cyclopropylbenzo[b]thiophen-3-yl)-6-methyl-1,4-dihydropyridine-3-carboxylate]",≥ 1000
23,"CC1=C(C#N)C(c2csc3c(C#N)cccc23)C(C(=O)OCC2CC2)=C(C2CC2)N1 (stereo not drawn) [Example C111, Cyclopropylmethyl 5-cyano-4-(7-cyanobenzo[b]thiophen-3-yl)-2-cyclopropyl-6-methyl-1,4-dihydropyridine-3-carboxylate]",< 100
24,"COC(=O)C1=C(C2CC2)NC(N)=C(C(=O)OCC2CC2)C1c1csc2c(C#N)cccc12 (stereo not drawn) [Example D19, 3-(cyclopropylmethyl) 5-methyl 2-amino-4-(7-cyanobenzo[b]thiophen-3-yl)-6-cyclopropyl-1,4-dihydropyridine-3,5-dicarboxylate]",< 100
25,"CC(=O)C1=C(C)NC(N)=C(C(=O)OCc2ccc(F)cc2)C1c1csc2c(C#N)cccc12 (stereo not drawn) [Example D13, 4-fluorobenzyl 5-acetyl-2-amino-4-(7-cyanobenzo[b]thiophen-3-yl)-6-methyl-1,4-dihydropyridine-3-carboxylate]",< 100
26,"CC(=O)C1=C(C)NC(C2CC2)=C(C(=O)OCc2ccncc2)C1c1csc2ncccc12 (stereo not drawn) [Example J36, Pyridin-4-ylmethyl 5-acetyl-2-cyclopropyl-6-methyl-4-(thieno[2,3-b]pyridin-3-yl)-1,4-dihydropyridine-3-carboxylate]",≥ 1000
27,"COC(=O)C1=C(C2CCC2)NC(C)=C(C(C)=O)C1c1csc2c(Br)cccc12 (stereo not drawn) [Example C102, Methyl 5-acetyl-4-(7-bromobenzo[b]thiophen-3-yl)-2-cyclobutyl-6-methyl-1,4-dihydropyridine-3-carboxylate]",100 to 1000
